Data taken from ChEMBL document CHEMBL5154682, “TDP-43 Modulation by Tau-Tubulin Kinase 1 Inhibitors: A New Avenue for Future Amyotrophic Lateral Sclerosis Therapy” (J Med Chem, 2022).
Activity calls are given as the source filed them. The rule behind the calls is not given here.

Experiments:
[1] = Selectivity index, ratio of IC50 for recombinant human TTBK1 to IC50 for recombinant human TTBK2
Tau-tubulin kinase 1 [2] = biological target: T1, Tau-tubulin kinase 1 (Homo sapiens, UniProt Q5TCY1)
Tau-tubulin kinase 2 [3] = biological target: T2, Tau-tubulin kinase 2 (Homo sapiens, UniProt Q6IQ55)
T2 sequence (Q6IQ55 whole entry): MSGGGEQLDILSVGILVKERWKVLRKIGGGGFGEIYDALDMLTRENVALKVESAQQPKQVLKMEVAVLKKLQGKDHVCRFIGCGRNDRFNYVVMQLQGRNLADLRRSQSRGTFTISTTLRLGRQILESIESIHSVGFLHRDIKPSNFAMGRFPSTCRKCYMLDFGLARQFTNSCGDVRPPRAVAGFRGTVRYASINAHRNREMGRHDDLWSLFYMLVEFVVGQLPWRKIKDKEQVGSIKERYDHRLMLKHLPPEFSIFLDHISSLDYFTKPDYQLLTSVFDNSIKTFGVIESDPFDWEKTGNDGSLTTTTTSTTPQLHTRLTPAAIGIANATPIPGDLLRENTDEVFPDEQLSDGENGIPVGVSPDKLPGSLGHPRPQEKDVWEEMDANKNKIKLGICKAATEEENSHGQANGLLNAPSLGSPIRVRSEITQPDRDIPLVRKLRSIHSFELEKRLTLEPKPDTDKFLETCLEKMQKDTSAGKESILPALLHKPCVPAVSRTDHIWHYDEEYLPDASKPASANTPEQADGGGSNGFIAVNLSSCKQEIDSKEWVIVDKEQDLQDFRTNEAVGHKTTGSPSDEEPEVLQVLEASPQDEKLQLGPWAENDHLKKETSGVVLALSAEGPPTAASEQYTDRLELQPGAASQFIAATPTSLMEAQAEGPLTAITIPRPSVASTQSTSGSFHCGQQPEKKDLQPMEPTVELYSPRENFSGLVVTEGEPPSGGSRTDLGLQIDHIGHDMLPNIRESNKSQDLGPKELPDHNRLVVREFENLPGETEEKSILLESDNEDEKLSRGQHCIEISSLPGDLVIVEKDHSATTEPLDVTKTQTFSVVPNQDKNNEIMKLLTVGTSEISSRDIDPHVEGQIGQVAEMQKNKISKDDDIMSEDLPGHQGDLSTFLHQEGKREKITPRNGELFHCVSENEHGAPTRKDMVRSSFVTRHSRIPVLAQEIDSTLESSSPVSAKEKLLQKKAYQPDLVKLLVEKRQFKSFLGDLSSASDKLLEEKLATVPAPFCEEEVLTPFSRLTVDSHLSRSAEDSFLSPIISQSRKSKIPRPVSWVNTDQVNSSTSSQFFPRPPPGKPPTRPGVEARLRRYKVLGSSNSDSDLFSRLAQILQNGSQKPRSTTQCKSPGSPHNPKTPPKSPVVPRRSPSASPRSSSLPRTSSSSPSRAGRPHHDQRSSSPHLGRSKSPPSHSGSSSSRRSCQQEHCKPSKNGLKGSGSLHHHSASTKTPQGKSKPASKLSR

SH-SY5Y [4] = test: Neuroprotective activity against okadaic acid-induced neurotoxicity in human SH-SY5Y cells assessed as reduction in Tau hyperphosphorylation by measuring cell viability at 1 to 5 uM incubated for 24 hrs by MTT assay; type: functional, cell-based; settings: dose 1-5 µM
[5] = Permeability of the compound at pH 7.4 PBS/EtOH buffer (70:30) by PAMPA-BBB assay
Tau-tubulin kinase 2 [6] = biological target: T2, Tau-tubulin kinase 2; settings: dose 10.0 µM, time 30.0 min
Tau-tubulin kinase 1 [7] = biological target: T1, Tau-tubulin kinase 1; settings: dose 10.0 µM, time 30.0 min
SH-SY5Y [8] = test: Neuroprotective activity against ethacrynic acid-induced neurotoxicity human SH-SY5Y cells assessed as decrease in TDP-43 phosphorylation at Ser409 at 5 uM preincubated for 1 hr followed by EA addition and further incubated for 24 hrs by Western blot analysis; type: functional, cell-based; settings: time 25.0 hrs
SH-SY5Y [9] = test: Neuroprotective activity against ethacrynic acid-induced neurotoxicity human SH-SY5Y cells assessed as increase in cell viability at 5 uM preincubated for 1 hr followed by ethacrynic acid addition and further incubated for 24 hrs by MTT assay; type: functional, cell-based; settings: time 25.0 hrs

T1 sequence (Q5TCY1 whole entry): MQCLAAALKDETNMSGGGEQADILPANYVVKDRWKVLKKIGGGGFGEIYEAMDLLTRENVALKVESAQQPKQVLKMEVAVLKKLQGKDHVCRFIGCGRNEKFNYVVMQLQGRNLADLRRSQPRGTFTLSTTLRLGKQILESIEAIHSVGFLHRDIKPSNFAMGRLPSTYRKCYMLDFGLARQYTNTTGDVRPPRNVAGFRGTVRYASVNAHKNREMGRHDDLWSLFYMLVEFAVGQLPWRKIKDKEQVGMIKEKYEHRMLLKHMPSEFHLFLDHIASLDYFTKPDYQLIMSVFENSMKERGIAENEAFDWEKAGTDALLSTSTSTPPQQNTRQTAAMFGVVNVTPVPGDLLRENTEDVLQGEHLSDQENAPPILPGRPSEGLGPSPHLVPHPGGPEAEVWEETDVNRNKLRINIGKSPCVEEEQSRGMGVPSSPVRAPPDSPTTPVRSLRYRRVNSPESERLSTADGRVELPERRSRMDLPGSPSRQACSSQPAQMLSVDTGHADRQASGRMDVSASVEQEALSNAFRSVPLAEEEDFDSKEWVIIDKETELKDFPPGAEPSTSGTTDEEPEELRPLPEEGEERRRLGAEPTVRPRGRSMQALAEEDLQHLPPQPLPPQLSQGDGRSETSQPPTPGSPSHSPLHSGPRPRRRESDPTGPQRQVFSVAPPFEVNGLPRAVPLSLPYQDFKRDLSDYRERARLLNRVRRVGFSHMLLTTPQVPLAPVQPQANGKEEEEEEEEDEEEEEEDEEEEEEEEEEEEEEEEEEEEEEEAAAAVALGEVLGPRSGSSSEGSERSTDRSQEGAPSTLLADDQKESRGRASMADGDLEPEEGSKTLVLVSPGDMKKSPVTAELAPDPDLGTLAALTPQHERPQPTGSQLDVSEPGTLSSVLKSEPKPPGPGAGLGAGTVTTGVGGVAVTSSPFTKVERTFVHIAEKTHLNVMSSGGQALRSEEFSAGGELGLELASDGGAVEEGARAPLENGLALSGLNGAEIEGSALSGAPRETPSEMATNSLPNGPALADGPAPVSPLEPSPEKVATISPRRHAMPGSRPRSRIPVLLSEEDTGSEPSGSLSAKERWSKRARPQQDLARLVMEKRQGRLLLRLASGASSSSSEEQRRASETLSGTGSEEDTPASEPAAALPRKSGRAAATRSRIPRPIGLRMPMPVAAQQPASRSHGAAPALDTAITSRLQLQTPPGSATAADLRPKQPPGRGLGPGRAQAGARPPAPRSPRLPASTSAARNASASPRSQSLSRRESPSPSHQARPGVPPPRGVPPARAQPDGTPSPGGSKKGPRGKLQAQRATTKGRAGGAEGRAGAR

| SMILES | Selectivity Index [1] | IC50 (Tau-tubulin kinase 1 [2]) [nM] | IC50 (Tau-tubulin kinase 2 [3]) [nM] | permeability [5] | inhibition (Tau-tubulin kinase 2 [6]) [%] | inhibition (Tau-tubulin kinase 1 [7]) [%] | also measured |
| --- | --- | --- | --- | --- | --- | --- | --- |
| CC(C)Oc1ccc(Nc2ncnc3[nH]ccc23)cc1 | 0.17 | 1500 | 8400 | Permeable | – | – | Activity (SH-SY5Y [4]): Active |
| FC(F)(F)c1cccc(Oc2ccc(Nc3ncnc4[nH]ccc34)cc2)c1 | – | – | – | – | 1 | – | – |
| CCOc1ccc(Nc2ncnc3[nH]ccc23)cc1 | 0.16 | 2300 | 13700 | Impermeable | – | – | Activity (SH-SY5Y [4]): Active |
| O=C(c1ccccc1)c1ccc(Nc2ncnc3[nH]ccc23)cc1 | – | – | – | Permeable | – | – | Activity (SH-SY5Y [4]): Active |
| Oc1ccccc1Nc1ncnc2[nH]ccc12 | – | – | – | – | 1 | 14 | – |
| c1nc(NC2CCCCC2)c2cc[nH]c2n1 | – | – | – | – | 15 | 3 | – |
| Oc1ccc(Nc2ncnc3[nH]ncc23)cc1 | – | – | – | – | 1 | 3 | – |
| c1ccc(CCn2cc(COc3ccc(Nc4ncnc5[nH]ccc45)cc3)nn2)cc1 | 0.15 | 390 | 2610 | Impermeable | – | – | – |
| c1ccc(Nc2ncnc3[nH]ccc23)cc1 | 0.47 | 790 | 1680 | Permeable | – | – | – |
| Clc1ccc(Nc2ncnc3sccc23)cc1 | – | – | – | – | – | 20 | – |
| O=C(c1ccc(Nc2ncnc3[nH]ccc23)cc1)c1ccc(Cl)c(Cl)c1 | – | – | – | – | – | 9 | – |
| c1cc(Nc2ncnc3[nH]ccc23)c2c(c1)OCO2 | 0.21 | 1580 | 7580 | Permeable | – | – | Activity (SH-SY5Y [4]): Active |
| c1ccc(Nc2ncnc3sccc23)cc1 | – | – | – | – | – | 17 | – |
| Oc1cccc(Nc2ncnc3[nH]ncc23)c1 | 0.22 | 9150 | – | – | 13 | – | – |
| Oc1ccc(CNc2ncnc3[nH]ccc23)cc1 | – | – | – | – | 10 | 23 | – |
| FC(F)(F)c1ccc(Oc2ccc(Nc3ncnc4[nH]ccc34)cc2)cc1 | – | – | – | – | 5 | – | – |
| c1nc(Nc2ccc(N3CCOCC3)cc2)c2cn[nH]c2n1 | – | – | – | – | 12 | 25 | – |
| Clc1ccc(CNc2ncnc3[nH]ccc23)cc1 | – | – | – | – | 10 | 32 | – |
| Nc1nc(Nc2ccc(Oc3ccc(C(F)(F)F)cc3)cc2)c2cc[nH]c2n1 | 0.13 | 380 | – | Permeable | – | – | Activity (SH-SY5Y [4]): Active |
| FC(F)(F)Oc1ccc(Nc2ncnc3[nH]ccc23)cc1 | 0.11 | 1000 | 8800 | Impermeable | – | – | – |
| c1ccc(-n2cc(COc3ccc(Nc4ncnc5[nH]ccc45)cc3)nn2)cc1 | – | – | – | – | 1 | 29 | – |
| COc1cccc(Oc2ccc(Nc3ncnc4[nH]ccc34)cc2)c1 | – | – | – | Permeable | – | – | Activity (SH-SY5Y [4]): Active |
| Clc1ccc(Nc2ncnc3[nH]ncc23)cc1 | – | – | – | – | 1 | 8 | – |
| COc1ccc(Nc2ncnc3[nH]ccc23)cc1 | 0.39 | 520 | 1320 | Impermeable | – | – | – |
| Clc1ccccc1Cn1cc(COc2ccc(Nc3ncnc4[nH]ccc34)cc2)nn1 | 0.13 | 360 | 2750 | Impermeable | – | – | – |
| c1cc2c(c(Nc3ncnc4[nH]ccc34)c1)CCCC2 | – | – | – | – | 10 | 23 | – |
| Clc1cccc(Cn2cc(COc3ccc(Nc4ncnc5[nH]ccc45)cc3)nn2)c1 | 0.24 | 480 | 2030 | Impermeable | – | – | – |
| Cc1ccc(Oc2ccc(Nc3ncnc4[nH]ccc34)cc2)cc1 | – | – | – | Permeable | – | – | Activity (SH-SY5Y [4]): Active; Activity (SH-SY5Y [8]): Active; Activity (SH-SY5Y [9]): Active |
